Results on 31 molecules are retold here after patent US11261186B2, “Biaryl derivative as GPR120 agonist” (LG CHEM, LTD., priority 2014, dated 2022).

Broadly, the EC50 is the concentration that produces a half-maximal response.

For the experiment, the target named is T1, hGPR120 (Homo sapiens, UniProt Q5NUL3).
T1 construct: expressed in transfected cells; host or cells: CHO-K1
T1 sequence (Q5NUL3 1-361): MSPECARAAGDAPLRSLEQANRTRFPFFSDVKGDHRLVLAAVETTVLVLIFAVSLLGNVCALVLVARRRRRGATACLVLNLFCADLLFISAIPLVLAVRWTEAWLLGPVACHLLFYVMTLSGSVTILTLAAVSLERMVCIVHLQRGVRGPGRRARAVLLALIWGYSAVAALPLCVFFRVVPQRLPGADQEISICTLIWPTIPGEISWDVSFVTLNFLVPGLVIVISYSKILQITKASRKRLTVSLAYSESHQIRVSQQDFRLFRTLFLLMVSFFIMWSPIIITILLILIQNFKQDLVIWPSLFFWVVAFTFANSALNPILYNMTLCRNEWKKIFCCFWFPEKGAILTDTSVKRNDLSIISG
The experiment is described as follows: Measurement of Activity of GPR120 Agonist (Cell-Based Assay), Calcium 5 dye fluorescence. The conditions noted are these: CHO-K1 cells expressing Ga16 and hGPR120. The procedure, abridged:
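CHO-K1 cells co-expressing Gα16 and hGPR120 were seeded, cultured 18 h at 37 °C, then loaded 1 h with Calcium 5 dye. Serially diluted agonists (final 0.5% DMSO) were added and fluorescence read at Ex 485/Em 525 nm, expressed as percent relative to 1% DMSO-only wells.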
Take `O=C(O)C1CC1CCNc1c(F)cc(-c2cccnc2SC2CCCC2)cc1F` (stereo not shown) [Example 128, 2-[2-[4-(2-cyclopentylsulfanyl-3-pyridyl)-2,6-difluoro-anilino]ethyl]cyclopropanecarboxylic acid]: the half-maximal effective concentration (EC50) was less than 0.2 µM.

On to `CC(C)Sc1ncccc1-c1cc(F)c(-n2cc(CCC(=O)O)cn2)c(F)c1` [Example 131, 3-[1-[2,6-difluoro-4-(2-isopropylsulfanyl-3-pyridyl)phenyl]pyrazol-4-yl]propanoic acid], for which the half-maximal effective concentration (EC50) was 2 to 20 µM.

As to `O=C(O)CCCN1CCc2cc(-c3cccnc3SC3CCCC3)ccc21` [Example 132, 4-[5-(2-cyclopentylsulfanyl-3-pyridyl)indolin-1-yl]butanoic acid], the half-maximal effective concentration (EC50) was less than 0.2 µM.

Consider `CC(C)Sc1ncccc1-c1cc(F)c(N2CC(CCC(=O)O)C2)c(F)c1` [Example 133, 3-[1-[2,6-difluoro-4-(2-isopropylsulfanyl-3-pyridyl)phenyl]azetidin-3-yl]propanoic acid], for which the EC50 is 0.2 to 2 µM.

For the molecule `CC(C)Sc1ncccc1-c1cc(F)c(N2CC[C@H](CC(=O)O)C2)c(F)c1` [Example 134, 2-[(3R)-1-[2,6-difluoro-4-(2-isopropylsulfanyl-3-pyridyl)phenyl]pyrrolidin-3-yl]acetic acid], the concentration for a half-maximal effect (EC50) is less than 0.2 µM.

Turning to `O=C(O)C[C@H]1CCN(c2c(F)cc(-c3cccnc3OC3CCCC3)cc2F)C1` [Example 135, 2-[(3R)-1-[4-[2-(cyclopentoxy)-3-pyridyl]-2,6-difluoro-phenyl]pyrrolidin-3-yl]acetic acid], the EC50 was less than 0.2 µM.

For `CC(C)Sc1ncccc1-c1cc(F)c(N2CC[C@@H](CC(=O)O)C2)c(F)c1` [Example 136, 2-[(3S)-1-[2,6-difluoro-4-(2-isopropylsulfanyl-3-pyridyl)phenyl]pyrrolidin-3-yl]acetic acid], the concentration giving a half-maximal response (EC50) was less than 0.2 µM.

Regarding `O=C(O)C[C@@H]1CCN(c2c(F)cc(-c3cccnc3OC3CCCC3)cc2F)C1` [Example 137, 2-[(3S)-1-[4-[2-(cyclopentoxy)-3-pyridyl]-2,6-difluoro-phenyl]pyrrolidin-3-yl]acetic acid], the EC50 was less than 0.2 µM.

As for `CC(C)Sc1ncccc1-c1ccc(N2CCC(CC(=O)O)CC2)c(F)c1` [Example 138, 2-[1-[2-fluoro-4-(2-isopropylsulfanyl-3-pyridyl)phenyl]-4-piperidyl]acetic acid], the EC50 lay within 0.2 to 2 µM.

As to `O=C(O)CC1CCN(c2ccc(-c3cccnc3OC3CCCC3)cc2F)CC1` [Example 139, 2-[1-[4-[2-(cyclopentoxy)-3-pyridyl]-2-fluoro-phenyl]-4-piperidyl]acetic acid], the concentration giving a half-maximal response (EC50) was in the range of 0.2 to 2 µM.

Turning to `CC(C)Sc1cccc(-c2ccc3cc(CCC(=O)O)ccc3c2)n1` [Example 140, 3-[6-(6-isopropylsulfanyl-pyridin-2-yl)-naphthalen-2-yl]-propanoic acid], the half-maximal effective concentration (EC50) lay in the range of 0.2 to 2 µM.

For `O=C(O)CCc1ccc2cc(-c3cccc(Oc4ccccc4)n3)ccc2c1` [Example 141, 3-[6-(6-phenoxy-pyridin-2-yl)-naphthalen-2-yl]-propanoic acid], the EC50 is less than 0.2 µM.

Turning to `O=C(O)CCc1ccc2cc(-c3ccccc3Oc3ccccc3)ccc2c1` [Example 142, 3-[6-(2-phenoxy-phenyl)-naphthalen-2-yl]-propanoic acid], the EC50 was 0.2 to 2 µM.

`O=C(O)CCc1ccc2cc(-c3cccc(SC4CCCC4)n3)ccc2c1` [Example 143, 3-[6-(6-cyclopentylsulfanyl-pyridin-2-yl)-naphthalen-2-yl]-propanoic acid]: the EC50 lay within 2 to 20 µM.

As for `O=C(O)CCc1ccc2cc(-c3cccnc3Oc3ccccc3)ccc2c1` [Example 144, 3-[6-(2-phenoxy-pyridin-3-yl)-naphthalen-2-yl]-propanoic acid], the EC50 is less than 0.2 µM.

Regarding `CC(C)Oc1cccc(-c2ccc3cc(CCC(=O)O)ccc3c2)c1` [Example 146, 3-[6-(3-isopropoxy-phenyl)-naphthalen-2-yl]-propanoic acid], the EC50 lay in the range of 0.2 to 2 µM.

As to `O=C(O)CCc1ccc2cc(-c3cccc(OC4CCC4)c3)ccc2c1` [Example 147, 3-[6-(3-cyclobutoxy-phenyl)-naphthalen-2-yl]-propanoic acid], the half-maximal effective concentration (EC50) was less than 0.2 µM.

Consider `O=C(O)CCc1ccc2cc(-c3cccc(OC4CCC4)n3)ccc2c1` [Example 148, 3-[6-(6-cyclobutoxy-pyridin-2-yl)-naphthalen-2-yl]-propanoic acid], for which the concentration giving a half-maximal response (EC50) lay in the range of 0.2 to 2 µM.

For `CC(C)Oc1ncccc1-c1ccc2cc(CCC(=O)O)ccc2c1` [Example 149, 3-[6-(2-isopropoxy-pyridin-3-yl)-naphthalen-2-yl]-propanoic acid], the EC50 is less than 0.2 µM.

Take `O=C(O)CCc1ccc2cc(-c3cccnc3OC3CCCC3)ccc2c1` [Example 150, 3-[6-(2-cyclopentyloxy-pyridin-3-yl)-naphthalen-2-yl]-propanoic acid]: the 50% effective concentration (EC50) was less than 0.2 µM.

Turning to `O=C(O)CCc1ccc2cc(-c3ccccc3Oc3ccccc3F)ccc2c1` [Example 151, 3-{6-[2-(2-fluoro-phenoxy)-phenyl]-naphthalen-2-yl}-propanoic acid], the EC50 fell in the range of 2 to 20 µM.

On to `O=C(O)CCc1ccc2cc(-c3cccc(Oc4ccccc4F)n3)ccc2c1` [Example 152, 3-{6-[6-(2-fluoro-phenoxy)-pyridin-2-yl]-naphthalen-2-yl}-propanoic acid], for which the 50% effective concentration (EC50) lay within 0.2 to 2 µM.

Take `O=C(O)CCCSc1c(F)cc(-c2cccc3c2OC(F)(F)O3)cc1F` [Example 153, 4-[4-(2,2-difluoro-benzo[1,3]dioxol-4-yl)-2,6-difluoro-phenylsulfanyl]-butyric acid]: the EC50 is less than 0.2 µM.

On to `O=C(O)CCCSc1ccc(-c2cccc3c2OC(F)(F)O3)cc1F` [Example 154, 4-[4-(2,2-difluoro-benzo[1,3]dioxol-4-yl)-2-fluoro-phenylsulfanyl]-butyric acid], for which the EC50 was less than 0.2 µM.

For `O=C(O)CCCSc1ccc(-c2cccc3c2OC(F)(F)O3)cc1` [Example 155, 4-[4-(2,2-difluoro-benzo[1,3]dioxol-4-yl)-phenylsulfanyl]-butyric acid], the EC50 is less than 0.2 µM.

With `O=C(O)CCCSc1ccc(-c2cccc3c2OC2(CCCC2)O3)cc1` [Example 156, 4-(4-spiro[1,3-benzodioxol-2,1′-cyclopentane]-4-ylphenyl)sulfanylbutanoic acid], the concentration for a half-maximal effect (EC50) was 0.2 to 2 µM.

`O=C(O)CCCSc1ccc(-c2cccc3c2OC2(CCCC2)O3)cc1F` [Example 157, 4-(2-fluoro-4-spiro[1,3-benzodioxol-2,1′-cyclopentan]-4-yl-phenyl)sulfanylbutanoic acid]: the EC50 is less than 0.2 µM.

For the molecule `CC(C)Oc1ncccc1-c1ccc(C(C)(C)CCCC(=O)O)cc1` [Example 158, 5-[4-(2-isopropoxy-pyridin-3-yl)-phenyl]-5-methyl-hexanoic acid], the 50% effective concentration (EC50) fell in the range of 0.2 to 2 µM.

Consider `CC(C)Sc1ncccc1-c1ccc(C(C)(C)CCCC(=O)O)cc1` [Example 159, 5-[4-(2-isopropylsulfanyl-pyridin-3-yl)-phenyl]-5-methyl-hexanoic acid], for which the EC50 was less than 0.2 µM.

With `CC(C)(CCCC(=O)O)c1ccc(-c2cccnc2OC2CCCC2)cc1` [Example 160, 5-[4-(2-cyclopentyloxy-pyridin-3-yl)-phenyl]-5-methyl-hexanoic acid], the EC50 is less than 0.2 µM.

For the molecule `CC(C)(CCCC(=O)O)c1ccc(-c2cccnc2OC2CCCC2)cc1F` [Example 161, 5-[4-(2-cyclopentyloxy-pyridin-3-yl)-2-fluoro-phenyl]-5-methyl-hexanoic acid], the concentration giving a half-maximal response (EC50) is 0.2 to 2 µM.
